Source: patent US10307413B2, “Tetrahydro- and dihydro-isoquinoline PRMT5 inhibitors and uses thereof” (Epizyme, Inc., priority 2013, dated 2019)
Like-named read-outs stand apart in the source and are kept apart here.

How the values were obtained:
PRMT5/MEP50 = PRMT5/MEP50 (Homo sapiens (Human), UniProt O14744); experiment: PRMT5 Biochemical Assay (PRMT5/MEP50 enzyme assay on peptide substrate, 3H-SAM Flashplate)
In short: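 Radiometric methylation of a biotin-tagged H4(1-15) peptide by human PRMT5/MEP50 from baculovirus/Sf9, with ³H-SAM incorporation read on streptavidin Flashplates. Buffer: Bicine pH 7.6, TCEP, BSG, Tween20; compound preincubated 30 min at 25 °C; stopped with 600 µM final unlabeled SAM. DMSO and SAH controls; IC50 from fitted % inhibition.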

[1] = test system: symmetric di-methyl arginine in Z-138 cells; experiment: Z-138 Methylation Assay (In Cell Western for symmetric di-methyl arginine and DNA content); assay type: cell-based; conditions: Homo sapiens, read-out: ICW EC50
In short: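 In-cell western: symmetric di-methyl arginine signal ratioed to DRAQ5 DNA content after 96 h compound exposure of Z-138 cells seeded at 50,000 cells/mL.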

Z-138 cell line = experiment: Z-138 Proliferation Assay (Cell Titer Glo, 5 days); assay type: cell-based; conditions: Homo sapiens, 120 h, Z-138 cells, 5 days, read-out: Proliferation EC50
In short: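 Viability via CellTiter-Glo luminescence (ATP) after 5-day incubation at 37 °C, 5% CO2. Compounds tested in triplicate, nine 3-fold steps, highest final concentration 20 μM in 0.2% DMSO; 50% inhibitory concentration by 4-parameter fit of normalized curves.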

Chain of PRMT5/MEP50 (O14744 other isoform, or with tags, fused parts or gaps): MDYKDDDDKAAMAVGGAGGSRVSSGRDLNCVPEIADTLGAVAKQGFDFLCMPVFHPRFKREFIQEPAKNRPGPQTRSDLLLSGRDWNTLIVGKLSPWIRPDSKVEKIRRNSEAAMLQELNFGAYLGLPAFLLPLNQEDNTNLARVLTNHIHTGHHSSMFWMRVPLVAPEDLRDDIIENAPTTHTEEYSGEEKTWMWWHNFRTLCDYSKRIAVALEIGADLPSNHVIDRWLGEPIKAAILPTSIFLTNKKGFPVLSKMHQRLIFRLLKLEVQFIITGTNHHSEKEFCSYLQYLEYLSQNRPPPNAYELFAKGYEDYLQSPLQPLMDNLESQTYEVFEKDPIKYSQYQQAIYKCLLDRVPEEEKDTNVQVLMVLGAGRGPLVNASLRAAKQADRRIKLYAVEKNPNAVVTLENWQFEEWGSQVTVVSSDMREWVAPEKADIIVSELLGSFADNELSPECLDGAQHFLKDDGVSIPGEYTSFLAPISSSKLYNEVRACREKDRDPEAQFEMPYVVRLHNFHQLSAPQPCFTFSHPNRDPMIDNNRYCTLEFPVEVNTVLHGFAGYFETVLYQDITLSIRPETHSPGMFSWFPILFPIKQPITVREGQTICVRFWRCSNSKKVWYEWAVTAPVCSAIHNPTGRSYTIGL
Chain of PRMT5/MEP50 (Q9BQA1 other isoform, or with tags, fused parts or gaps partner): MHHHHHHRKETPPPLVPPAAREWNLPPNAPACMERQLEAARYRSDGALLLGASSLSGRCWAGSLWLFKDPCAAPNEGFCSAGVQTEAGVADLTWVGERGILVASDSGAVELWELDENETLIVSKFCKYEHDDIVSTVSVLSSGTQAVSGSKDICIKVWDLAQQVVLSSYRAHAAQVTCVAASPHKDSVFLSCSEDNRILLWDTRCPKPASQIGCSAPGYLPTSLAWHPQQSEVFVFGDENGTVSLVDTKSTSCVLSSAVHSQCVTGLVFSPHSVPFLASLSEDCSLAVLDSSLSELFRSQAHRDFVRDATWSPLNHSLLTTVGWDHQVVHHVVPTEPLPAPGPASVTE

SMILES	IC50 (PRMT5/MEP50; PRMT5 biochemical assay)	EC50 ([1]; In Cell Western methylation)	EC50 (Z-138 cell line; Cell Titer Glo)	IC50 (PRMT5/MEP50)	EC50 [1]	EC50 (Z-138 cell line)
CC(=O)N1CCC(Nc2cc(C(=O)NC[C@H](O)CN3CCc4ccc(C)cc4C3)ccn2)CC1 [Compound 669]	< 100 nM	< 100 nM	101 to 1000 nM	–	–	–
O=C(NC[C@H](O)CN1CCc2ccccc2C1)c1cnnc(NC2CCOC2)c1 (stereo partly drawn) [Compound 544]	< 100 nM	< 100 nM	101 to 1000 nM	–	–	–
Cn1ccc(Nc2cc(C(=O)NC[C@H](O)CN3CCc4ccccc4C3)ccn2)n1 [Compound 342]	–	–	–	< 100 nM	< 100 nM	1000 to 10000 nM
CC(=O)N[C@H]1CC[C@H](Nc2cc(C(=O)NC[C@H](O)CN3CCc4ccccc4C3)ncn2)CC1 [Compound 594]	< 100 nM	< 100 nM	101 to 1000 nM	–	–	–
CC(=O)N1CCN(c2cc(C(=O)NC[C@H](O)CN3CCc4ccccc4C3)cc(NC3CCC3)n2)CC1 [Compound 398]	< 100 nM	< 100 nM	< 100 nM	–	–	–
CN1CCC(Nc2cc(C(=O)NC[C@H](O)CN3CCc4ccccc4C3)cnn2)C1 (stereo partly drawn) [Compound 689]	< 100 nM	101 to 1000 nM	> 5000 nM	–	–	–
Cc1c(NC2COC2)ncnc1C(=O)NC[C@H](O)CN1CCc2ccccc2C1 [Compound 604]	< 100 nM	101 to 1000 nM	1000 to 10000 nM	–	–	–
NC(=O)CN1CC(Nc2cc(C(=O)NC[C@H](O)CN3CCc4ccccc4C3)ncn2)C1 [Compound 621]	< 100 nM	1000 to 10000 nM	1000 to 10000 nM	–	–	–
CC(=O)Nc1cccc(C(=O)NCC(O)CN2CCc3ccccc3C2)c1 (stereo not drawn) [Compound 26]	–	–	–	101 to 1000 nM	101 to 1000 nM	10000 to 50000 nM
O=C(NC[C@H](O)CN1CCc2ccccc2C1)c1cc(NC2CN(C(=O)C3CCC3)C2)ccn1 [Compound 577]	< 100 nM	< 100 nM	< 100 nM	–	–	–
CC(=O)N1CC(Nc2cc(C(=O)NC(C)C(O)CN3CCc4ccccc4C3)ncn2)C1 (stereo not drawn) [Compound 524]	101 to 1000 nM	101 to 1000 nM	> 5000 nM	–	–	–
COCCN1CCC(Nc2ccnc(C(=O)NC[C@H](O)CN3CCc4ccccc4C3)c2)CC1 [Compound 550]	< 100 nM	< 100 nM	1000 to 10000 nM	–	–	–
CN(C)C(=O)[C@H]1CC[C@@H](Nc2cc(C(=O)NC[C@H](O)CN3CCc4ccccc4C3)ncn2)CC1 [Compound 598]	< 100 nM	< 100 nM	1000 to 10000 nM	–	–	–
CC(=O)N1CC(Nc2cc(C(=O)NC[C@H](O)CN3CCc4ccccc4C3)cnn2)C1 [Compound 629]	< 100 nM	101 to 1000 nM	1000 to 10000 nM	–	–	–
O=C(NCC(O)CN1CCc2ccccc2C1)c1cccc(C2CCCN2)c1 (stereo not drawn) [Compound 42, N-(3-(3,4-dihydroisoquinolin-2(1H)-yl)-2-hydroxypropyl)-3-(pyrrolidin-2-yl)benzamide]	–	–	–	101 to 1000 nM	1000 to 10000 nM	> 20000 nM
CC(=O)N1CC(Nc2cc(C(=O)NC[C@H](O)CN3CCc4c(C)cccc4C3)ncn2)C1 [Compound 676]	< 100 nM	< 100 nM	1000 to 10000 nM	–	–	–
